Patent US10689378B2, “Triazolopyridine compounds and uses thereof” (Novartis AG, priority 2016, dated 2020)

Legend:
EED (1-441)-His protein = biological target: T1, EED (1-441)-His protein (Homo sapiens, UniProt O75530); experiment: EED-H3K27Me3 peptide competition binding assay by AlphaScreen; conditions: read-out: (a) IC50 EED Alphascreen binding Qualified
T1 construct: 30 nM EED (1-441)-His protein
Summary of the method: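 Serially diluted compound (12 points, 3-fold) incubated 20 min with 30 nM EED(1-441)-His and 15 nM biotin-H3K27Me3(19-33) peptide in 25 mM HEPES pH 8, 0.02% Tween-20, 0.5% BSA. Ni-chelate acceptor/streptavidin donor beads (10 μg/mL each) added, 1 h rt dark; 615 nm emission normalized to controls, dose-response fit for IC50.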

[1] = biological target: wild type PRC2 (wtPRC2) complex (Homo sapiens, UniProt O75530); experiment: EED LC-MS assay (SAH production by PRC2); type: biochemical; conditions: read-out: (b) IC50 EED LC-MS Qualified
Sequence of wild type PRC2 (wtPRC2) complex (O75530 whole entry): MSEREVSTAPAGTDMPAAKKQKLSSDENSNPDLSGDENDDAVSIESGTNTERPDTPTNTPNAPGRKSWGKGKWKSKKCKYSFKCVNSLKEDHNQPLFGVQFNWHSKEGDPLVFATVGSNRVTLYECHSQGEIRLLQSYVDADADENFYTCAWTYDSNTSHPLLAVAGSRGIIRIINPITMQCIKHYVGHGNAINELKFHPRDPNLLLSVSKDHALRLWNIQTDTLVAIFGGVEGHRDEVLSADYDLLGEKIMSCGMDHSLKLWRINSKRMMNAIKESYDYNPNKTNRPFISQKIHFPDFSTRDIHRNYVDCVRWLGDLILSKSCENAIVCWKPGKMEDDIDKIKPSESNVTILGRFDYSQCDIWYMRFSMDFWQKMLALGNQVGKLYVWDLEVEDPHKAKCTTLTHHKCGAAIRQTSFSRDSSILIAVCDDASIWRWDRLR
Sequence of wild type PRC2 (wtPRC2) complex (Q15910 whole entry partner): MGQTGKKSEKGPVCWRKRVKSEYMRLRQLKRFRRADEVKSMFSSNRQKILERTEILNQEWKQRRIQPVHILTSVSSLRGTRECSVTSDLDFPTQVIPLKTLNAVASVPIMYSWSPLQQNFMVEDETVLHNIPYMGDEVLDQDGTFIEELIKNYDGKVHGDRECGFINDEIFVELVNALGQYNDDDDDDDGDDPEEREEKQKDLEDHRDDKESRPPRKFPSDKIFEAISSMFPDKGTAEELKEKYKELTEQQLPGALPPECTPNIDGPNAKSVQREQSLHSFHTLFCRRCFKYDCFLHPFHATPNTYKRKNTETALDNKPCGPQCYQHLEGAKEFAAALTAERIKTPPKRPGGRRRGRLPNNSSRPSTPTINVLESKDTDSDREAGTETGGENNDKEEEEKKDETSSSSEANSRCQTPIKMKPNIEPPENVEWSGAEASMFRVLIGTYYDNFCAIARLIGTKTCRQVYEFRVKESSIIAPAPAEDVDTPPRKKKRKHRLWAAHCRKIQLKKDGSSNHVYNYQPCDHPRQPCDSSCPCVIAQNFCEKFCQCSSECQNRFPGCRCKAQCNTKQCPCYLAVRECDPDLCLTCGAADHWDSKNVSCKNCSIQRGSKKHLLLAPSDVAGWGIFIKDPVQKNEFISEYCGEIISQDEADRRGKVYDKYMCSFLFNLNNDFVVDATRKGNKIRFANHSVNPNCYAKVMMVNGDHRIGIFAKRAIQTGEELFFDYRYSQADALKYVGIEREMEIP
Sequence of wild type PRC2 (wtPRC2) complex (Q15022 whole entry partner): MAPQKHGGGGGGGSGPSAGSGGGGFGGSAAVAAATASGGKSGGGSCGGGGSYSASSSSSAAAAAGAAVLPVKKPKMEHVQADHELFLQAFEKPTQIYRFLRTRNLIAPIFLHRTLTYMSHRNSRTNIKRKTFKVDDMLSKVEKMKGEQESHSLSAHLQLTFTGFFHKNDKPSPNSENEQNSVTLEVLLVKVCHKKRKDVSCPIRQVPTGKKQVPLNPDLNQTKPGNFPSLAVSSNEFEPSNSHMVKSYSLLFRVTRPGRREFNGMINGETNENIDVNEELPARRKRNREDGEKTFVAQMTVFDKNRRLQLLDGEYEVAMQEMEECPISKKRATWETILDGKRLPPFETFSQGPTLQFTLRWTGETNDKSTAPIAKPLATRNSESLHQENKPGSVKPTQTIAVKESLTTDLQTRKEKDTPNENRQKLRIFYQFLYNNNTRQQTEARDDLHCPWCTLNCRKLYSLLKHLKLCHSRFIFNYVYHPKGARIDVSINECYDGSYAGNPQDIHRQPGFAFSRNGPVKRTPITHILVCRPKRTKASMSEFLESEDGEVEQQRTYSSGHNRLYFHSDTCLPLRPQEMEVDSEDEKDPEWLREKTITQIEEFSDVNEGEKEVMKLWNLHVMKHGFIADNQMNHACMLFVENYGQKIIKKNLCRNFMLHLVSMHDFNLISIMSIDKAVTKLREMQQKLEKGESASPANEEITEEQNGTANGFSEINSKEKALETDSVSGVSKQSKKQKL
Sequence of wild type PRC2 (wtPRC2) complex (Q09028 whole entry partner): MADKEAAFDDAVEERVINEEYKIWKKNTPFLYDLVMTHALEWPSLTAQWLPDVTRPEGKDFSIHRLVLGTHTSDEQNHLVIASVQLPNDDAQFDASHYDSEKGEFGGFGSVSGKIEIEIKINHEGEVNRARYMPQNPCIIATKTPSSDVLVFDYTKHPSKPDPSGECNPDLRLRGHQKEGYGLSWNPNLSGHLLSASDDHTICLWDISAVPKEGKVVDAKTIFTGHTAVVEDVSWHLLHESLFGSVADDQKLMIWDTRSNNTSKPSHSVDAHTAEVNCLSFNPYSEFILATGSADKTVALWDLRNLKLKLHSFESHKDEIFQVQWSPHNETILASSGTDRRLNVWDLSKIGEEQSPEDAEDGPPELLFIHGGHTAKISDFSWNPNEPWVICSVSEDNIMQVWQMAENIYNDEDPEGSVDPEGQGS
Sequence of wild type PRC2 (wtPRC2) complex (Q6ZN18 whole entry partner): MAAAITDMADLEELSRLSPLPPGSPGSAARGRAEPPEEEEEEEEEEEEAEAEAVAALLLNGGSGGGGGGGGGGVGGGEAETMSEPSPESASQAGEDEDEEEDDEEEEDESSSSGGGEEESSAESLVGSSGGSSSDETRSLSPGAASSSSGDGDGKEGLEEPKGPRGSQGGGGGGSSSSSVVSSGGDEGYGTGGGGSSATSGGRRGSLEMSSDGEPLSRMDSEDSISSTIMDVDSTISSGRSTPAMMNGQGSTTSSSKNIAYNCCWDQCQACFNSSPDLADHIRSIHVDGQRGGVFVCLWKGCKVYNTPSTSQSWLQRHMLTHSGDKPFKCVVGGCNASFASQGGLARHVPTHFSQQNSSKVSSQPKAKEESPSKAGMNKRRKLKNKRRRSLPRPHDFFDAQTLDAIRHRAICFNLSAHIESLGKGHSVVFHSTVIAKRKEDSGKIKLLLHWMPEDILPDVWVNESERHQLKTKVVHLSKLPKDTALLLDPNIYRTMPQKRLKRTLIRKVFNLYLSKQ
Summary of the method: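 LC-MS/MS readout of SAH (d4-SAH standard) after TFA quench gives PRC2 activity, normalized to controls and fitted to dose-response for IC50. Reaction: 12 nM EZH2/SUZ12/EED/Rbap48/AEBP complex, 1 μM SAM, 1.5 μM H3[21-44] peptide, 120 min rt, 20 min compound preincubation.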

[2] = test system: H3K27 methylation in G401 cell; experiment: ELISA (H3K27 methylation) assay in G401 cells; type: cell-based, human; conditions: Homo sapiens, G-401, read-out: (c) IC50 ELISA Qualified
Summary of the method: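 IC50 from dose-response fit of percent inhibition relative to DMSO, using H3K27me3/me2 ELISA signal (ECL) normalized to histone H3. Histones HCl-extracted after 48 h compound exposure of G401 cells at up to 20 μM, 8- or 12-point 3-fold series.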

T1 sequence (O75530 whole entry): as the sequence (O75530 whole entry) above

Row | Compound | IC50 (EED (1-441)-His protein) [nM] | IC50 [1] [nM] | IC50 [2] [nM]
1 | COc1cccc(F)c1CNc1ccc(-n2ccnc2C)c2nncn12 [Example 362, N-(2-fluoro-6-methoxybenzyl)-8-(2-methyl-1H-imidazol-1-yl)-[1,2,4]triazolo [4,3-a]pyridin-5-amine] | 39.8 | 33.4 | 17
2 | COc1cccc(F)c1CNc1ccc(-n2ccnc2)c2nncn12 [Example 363, N-(2-fluoro-6-methoxybenzyl)-8-(1H-imidazol-1-yl)-[1,2,4]triazolo[4,3-a] pyridin-5-amine] | 25 | 55.4 | 19.3
3 | COc1cccc(F)c1CNc1ccc(-n2cc(C)c(C)n2)c2nncn12 [Example 367, 8-(3,4-dimethyl-1H-pyrazol-1-yl)-N-(2-fluoro-6-methoxybenzyl)-[1,2,4]triazolo[4,3-a] pyridin-5-amine] | 23.5 | 113 | 29.1
4 | COc1cccc(F)c1CNc1ccc(-c2c(C)cnn2C)c2nncn12 [Example 370, 8-(1,4-dimethyl-1H-pyrazol-5-yl)-N-(2-fluoro-6-methoxybenzyl)-[1,2,4]triazolo[4,3-a] pyridin-5-amine] | 25.8 | 108 | 20
5 | COc1cc(F)cc(F)c1CNc1ccc(-c2cnc(C)nc2OC)c2nncn12 [Example 373, N-(2,4-difluoro-6-methoxybenzyl)-8-(4-methoxy-2-methylpyrimidin-5-yl)-[1,2,4] triazolo[4,3-a]pyridin-5-amine] | 48.7 | 494 | 64.1
6 | COc1ncccc1CNc1ccc(-c2ccc(CN(C)C)cc2)c2nncn12 [Example 374, 8-(4-((dimethylamino)methyl)phenyl)-N-((2-methoxypyridin-3-yl)methyl)-[1,2,4]triazolo[4,3-a] pyridin-5-amine] | 58.3 | 144 | 46.7

Stronger by IC50 (EED (1-441)-His protein), values ahead:

Row | IC50 (EED (1-441)-His protein) [nM] | IC50 [1] [nM] | IC50 [2] [nM] | Compound
7 | 21.1 | 118 | 33.8 | COc1cccc(F)c1CNc1ccc(-c2cnc(C)nc2OC)c2nncn12 [Example 372, N-(2-fluoro-6-methoxybenzyl)-8-(4-methoxy-2-methylpyrimidin-5-yl)-[1,2,4]triazolo[4,3-a]pyridin-5-amine]
8 | 13.3 | 45.5 | 3.4 | COc1cccc(F)c1CNc1ccc(-c2cnc(C)n2C)c2nncn12 [Example 366, 8-(1,2-dimethyl-1H-imidazol-5-yl)-N-(2-fluoro-6-methoxybenzyl)-[1,2,4]triazolo[4,3-a]pyridin-5-amine]
9 | 11.7 | 70.9 | 6.5 | COc1cccc(F)c1CNc1ccc(-c2ccc(NC(=O)N(C)C)nc2C)c2nncn12 [Example 368, 3-(5-(5-((2-fluoro-6-methoxybenzyl)amino)-[1,2,4]triazolo[4,3-a]pyridin-8-yl)-6-methylpyridin-2-yl)-1,1-dimethylurea]
10 | 5.2 | 205 | 2.9 | COc1cccc(F)c1CNc1ccc(-c2ccc(C(C)(C)C#N)nc2C)c2nncn12 [Example 369, 2-(5-(5-((2-fluoro-6-methoxybenzyl)amino)-[1,2,4]triazolo[4,3-a]pyridin-8-yl)-6-methylpyridin-2-yl)-2-methylpropanenitrile]
